{"source": "patent US20230407296A1", "about": "“Method to Regulate ALOX12-AS1 IncRNA-Mediated Alteration of ALOX12 Protein and to Screen for Novel Drugs to Alter ALOX12 Protein Level” (priority 2021, published 2023)", "key": {"ALOX12 AS1-201": {"tested_on": "ALOX12 AS1-201", "assay": "Multiplex RT-PCR of ALOX12-AS1-201 in TPA-treated THP-1 derived MLCs", "format": "cell-based, human", "settings": "TPA treated (72 hours) MLCs vs vehicle treated THP-1 cells", "experimental": "(§1) Phorbol ester (12-O-Tetradecanoylphorbol 13-acetate: TPA) is an activator of protein kinase C (PKC) that has been frequently used for inducing the differentiation of different cell types, including myeloid cells. Activation of human monocytic cells affects ALOX expression. Therefore, we induced differentiation of monocytic THP-1 cells to macrophage-like cells (MLCs) with 100 nM TPA [91, 92] and monitored the ALOX12 protein level as well as nucleo-cytoplasmic translocation of ALOX12-AS1-201. […] We concurrently monitored expression of the integrin subunit a M (ITGAM), also known as CD11b, which regulates myeloid cell polarization and is expressed in macrophages to facilitate adhesion, migration, chemotaxis, and accumulation during inflammation. […]\n(§2) Total RNA from different cell lines was extracted with Trizol reagent (Catalog number: 15596026; ThermoFisher Scientific, Canada) as per the manufacturer's recommended protocol. […] Absolute quantification of ALOX12-AS1 lncRNA isoforms was performed in a Mastercycler®ep realplex real-time PCR system (Eppendorf, Hamburg, Germany) using SYBR green dye (Catalog number: S7563; ThermoFisher Scientific). […] Real-time PCR data quality control calculations were determined by the SAS program as described previously and the calculated PCR efficiency was between 95%-99%. […] Results were expressed as copy number of specific isoforms per 100 ng of total RNA."}, "[1]": {"tested_on": "ALOX12 protein level in HEK293 cells", "assay": "ALOX12 protein level in HEK293 cells (immunoblot)", "format": "cell-based, human", "settings": "HEK293 cells, 10 μM TPA, 1 hour, vs vehicle", "method": "As an alternative approach, multiple isoform-specific oligonucleotides (ASOs) complementary to different regions of ALOX12-AS1-201/202 were designed (FIG. 7A-C).\nRelative quantification of proteins was performed as described previously [35, 106]. The cell lysates were prepared in 1×RIPA lysis and extraction buffer (catalogue number: 89900, ThermoFisher Scientific) supplemented with 1× Halt protease and phosphatase inhibitor cocktail (catalogue number: 78441, ThermoFisher Scientific). The protein lysates were denatured in Laemmli buffer containing 2% SDS, 10% glycerol, 0.002% bromophenol blue, 0.75 M Tris-HCl pH 6.8, and 100 mM DTT. The immunoblots were imaged using a ChemiDoc XRS+ system (Bio-Rad) and band intensities were quantified using ImageJ (version 1.48) Software [107]. Due to the possibility of inconsistency in the relative expression of housekeeping genes, we normalized all proteins of interest based on the intensity of the Oriole-stained protein profile [92]."}, "ALOX12 mRNA [2]": {"tested_on": "ALOX12 mRNA", "assay": "Multiplex RT-PCR of ALOX12 mRNA in TPA-treated THP-1 derived MLCs", "format": "cell-based, human", "settings": "TPA treated (72 hours) MLCs vs vehicle treated THP-1 cells", "experimental": "as §1, §2"}, "THP-1 cells": {"tested_on": "THP-1 cells", "assay": "TPA-induced differentiation of THP-1 cells to macrophage-like cells (ITGAM immunoblot, CD68 immunofluorescence)", "format": "cell-based, human", "settings": "100 nM TPA", "experimental": "(§3) Phorbol ester (12-O-Tetradecanoylphorbol 13-acetate: TPA) is an activator of protein kinase C (PKC) that has been frequently used for inducing the differentiation of different cell types, including myeloid cells. Activation of human monocytic cells affects ALOX expression. Therefore, we induced differentiation of monocytic THP-1 cells to macrophage-like cells (MLCs) with 100 nM TPA [91, 92] and monitored the ALOX12 protein level as well as nucleo-cytoplasmic translocation of ALOX12-AS1-201. […] We concurrently monitored expression of the integrin subunit a M (ITGAM), also known as CD11b, which regulates myeloid cell polarization and is expressed in macrophages to facilitate adhesion, migration, chemotaxis, and accumulation during inflammation. […] CD68 is a transmembrane glycoprotein that is mainly located in the endosomal/lysosomal compartment but can rapidly shuttle to the cell surface in myeloid cells. […] Based on these observations, we performed nuclear and cytoplasmic fractionation at 72 hours of TPA treatment.\n(§4) Relative quantification of proteins was performed as described previously. […] The immunoblots were imaged using a ChemiDoc XRS+ system (Bio-Rad) and band intensities were quantified using ImageJ (version 1.48) Software. […]"}, "ALOX12-AS1-202": {"tested_on": "ALOX12-AS1-202", "assay": "Multiplex RT-PCR of ALOX12-AS1-202 in TPA-treated THP-1 derived MLCs", "format": "cell-based, human", "settings": "TPA treated (72 hours) MLCs vs vehicle treated THP-1 cells", "experimental": "as §1, §2"}, "ALOX12 mRNA [3]": {"tested_on": "ALOX12 mRNA", "settings": "A431 cells, time-dependent; cited from earlier work"}, "[4]": {"tested_on": "ALOX12 protein level in THP-1 cells", "assay": "ALOX12 protein level in TPA-treated THP-1 cells (immunoblot)", "format": "cell-based, human", "experimental": "as §3, §4"}}, "data": [{"molecule": "CCCCCCCCCCCCCC(=O)O[C@@H]1[C@@H](C)[C@@]2(O)[C@@H](C=C(CO)C[C@]3(O)C(=O)C(C)=C[C@@H]23)[C@@H]2C(C)(C)[C@]12OC(C)=O", "note": "[TPA, 12-O-Tetradecanoylphorbol 13-acetate]", "values": [{"measurement": "ALOX12 AS1-201 level", "setting": "ALOX12 AS1-201", "value": "relatively unaltered"}, {"measurement": "ALOX12 protein level", "setting": "[1]", "value": "significant reduction"}, {"measurement": "ALOX12 mRNA level", "setting": "ALOX12 mRNA [2]", "value": "relatively unaltered"}, {"measurement": "ITGAM expression", "setting": "THP-1 cells; immunoblot", "value": "expressed at 72 hours"}, {"measurement": "CD68 expression and localization", "setting": "THP-1 cells; immunofluorescence", "value": "gradually increasing expression and translocation of CD68 to endosomal structures"}, {"measurement": "ALOX12-AS1-202 level", "setting": "ALOX12-AS1-202", "value": "dramatic reduction"}, {"measurement": "expression of ALOX12 mRNA", "setting": "ALOX12 mRNA [3]", "value": "increased"}, {"measurement": "ALOX12 protein levels", "setting": "[4]; THP-1 cells, 100 nM TPA, treatment period 1-72 h, immunoblot", "value": "dramatically reduced"}, {"measurement": "ALOX12 protein levels", "setting": "[4]; TPA-differentiated MLCs, 100 nM, 72 hours, vs vehicle (DMSO) treated THP-1 cells", "value": "concomitant decrease"}]}]}
